From publication PMC10383195, “Interactions of the Kv1.1 Channel with Peptide Pore Blockers: A Fluorescent Analysis on Mammalian Cells” (Membranes, 2023)
Numbered stars: 1 amine (or outer) side, 2 acyl side, 3 side chain; on linkers, the order of the positions; unused ones are H or OH. Bridge positions count the residues as written; N and C are the ends. Square brackets hold non-standard residues; d marks the D form. Peptide text beside a SMILES is read from it. * marks the point of attachment. X1 = N=c1ccc2c(-c3ccccc3C(=O)*)c3ccc(N)c(S(=O)(=O)O)c3oc-2c1S(=O)(=O)O; NMeGABA = CN(CCCC(=O)[*:2])[*:1]

What was measured:
Kv1.3 channel [1] = conditions: read-out: Kd of A-HgTx with Kv1.3 channel; cited from earlier work
[2] = biological target: T1, K-Kv1.1 channel (hKv1.1S369T with mKate2) (Homo sapiens, UniProt Q09470, S369T); test: Whole-cell patch-clamp of currents through K-Kv1.1 in Neuro2a cells; assay type: cell-based
T1 construct: these fragments were combined and amplified using terminal primers to obtain the whole mutated gene; expressed in transfected cells; host or cells: mouse neuroblastoma Neuro2a cells, transient transfection with pmKate2-KCNA1m1
Experimental: Membrane ion currents through the K-Kv1.1 channel were recorded at room temperature by the patch-clamp technique using the standard whole-cell configuration as described earlier.
Briefly, Neuro2a cells attached to coverslips (10 mm in diameter) pre-coated with poly-D-lysine were immersed in a buffer (140 mM NaCl, 2.8 mM KCl, 2 mM MgCl2, 2 mM CaCl2, 10 mM glucose, 10 mM HEPES, pH 7.4) and perfused continuously. Micropipettes with a tip resistance of 6–8 MΩ were filled with a pipette solution containing 140 mM KCl, 6 mM CaCl2, 2 mM MgCl2, 2 mM MgATP, 0.4 mM NaGTP, 10 mM HEPES, 20 mM BAPTA/KOH (pH 7.3). The patches were routinely held at a holding potential of −40 mV. The potential was changed from −70 to +70 mV (20 mV step) using 200 ms pulses, which were applied incrementally with an interval of 20 s. Finally, the potential returned to the holding potential.
Cells were measured 24–48 h after transfection. The cells were selected by K-Kv1.1 fluorescence. The cells were analyzed if their input resistance was more than 350 MΩ. The currents were recorded using an EPC-10 amplifier (HEKA Elektronik, Stuttgart, Germany).
[…] The toxins were dissolved in a complete medium.
The measured concentration dependence of current inhibition through the K-Kv1.1 channel by A-HgTx was analyzed with the following equation:Irel(L) = 100/(1 + (IC50/L)^h) (1) where Irel is a decrease in current (%), L is the concentration of A-HgTx, IC50 is the concentration of A-HgTx that induces a 50% decrease in current, and h is the Hill coefficient.

Kv1.3 channel [3] = conditions: cited from earlier work
Experimental: Exploring the potential of this analytical system, we have measured the Kap of the complex between the recombinant peptide Ce1 and the Kv1.1 channel (Figure 8c, Table 2) and classified Ce1 as a moderately active ligand of this channel. Toxin Ce1 was found in the venom of the scorpion Centruroides elegans and characterized as a high-affinity pore blocker of the Kv1.3 channel (IC50 = 0.7 nM). Its activity for the Kv1.1 channel was not previously reported.

[4] = biological target: T2, mKate2-tagged human Kv1.1 (S369T) channel (K-Kv1.1) (Homo sapiens, UniProt Q09470, S369T); test: Competitive binding of peptide pore blocker and A-HgTx to K-Kv1.1 on the plasma membrane of Neuro2a cells (confocal microscopy); conditions: A-HgTx (2 nM) displacement compared in complete medium, Na+ and K+ buffers
T2 construct: these fragments were combined and amplified using terminal primers to obtain the whole mutated gene; expressed in transfected cells; host or cells: mouse neuroblastoma Neuro2a cells, transient transfection with pmKate2-KCNA1m1
Experimental: To analyze the binding of A-HgTx, A-HgTx (0.25–4 nM) was added to cells in a complete medium for 60 min. To analyze competitive binding, A-HgTx (2 nM), together with the selected peptide (0.05–160 nM), was added to cells in a complete medium for 60 min.
To compare ligand binding with closed and open channels, ligands were added to cells (60 min, 37 °C) in a buffer (20 mM HEPES pH 7.4, 0.9 mM CaCl2, 0.5 mM MgCl2, 0.1% BSA) supplemented with 4 mM KCl and 150 mM NaCl (Na^+ buffer) or with 150 mM KCl (K^+ buffer).
The fluorescence of the K-Kv1.1 and K-Kv1.1wt channels was excited at 561 nm and detected in the 650–700 nm region. A-HgTx fluorescence was excited at 488 nm and detected in the 495–535 nm region. Sequential scanning was used to measure the cellular distributions of A-HgTx and mKate2 fluorescence in order to avoid interference of mKate2 fluorescence with cellular autofluorescence excited at 488 nm.
Quantitative analysis of the interaction of A-HgTx with K-Kv1.1 was carried out in accordance with the procedure developed previously for A-HgTx and the fluorescently labeled Kv1.3 channel. Briefly, the regions of interest with K-Kv1.1 on the plasma membrane were selected in the confocal images and used to create binary (0;1) masks that described the membranous distribution of K-Kv1.1. The confocal images of K-Kv1.1 and A-HgTx were multiplied by the corresponding mask, and the average fluorescence intensities of A-HgTx (Ili) and K-Kv1.1 (Ici) corrected for the background signal were calculated for each i-cell. Ratio Ri = Ili/Ici was calculated and averaged over 15–20 cells to obtain the Rav value and the standard deviation.
To analyze the competitive binding of the studied peptide pore blocker and A-HgTx to K-Kv1.1 on the cellular membrane, Rav data were plotted depending on the blocker concentration (C) at the constant A-HgTx concentration (L) and fitted with the following equation:Rav(C) = Rav0/(1 + C/DC50)(3) where DC50 is the blocker concentration displacing 50% of A-HgTx from the complex with K-Kv1.1, and Rav0 is Rav at C = 0.
The apparent dissociation constant (Kap) of the complex between the studied blocker and the K-Kv1.1 channel was calculated using the Cheng–Prusoff equation:Kap = DC50/(1 + L/Kd).(4)
Two independent experiments were performed, and the Kav data were averaged and presented as mean ± SEM. Fifteen to twenty-five treated cell images were the average value for each point on the curves of A-HgTx binding to the K-Kv1.1 channel.

Kv1.1 channel = conditions: concentrations up to 25 nM; cited from earlier work
Description: Ce1 is a member of the α-KTx2 subfamily of scorpion toxins and is a close homolog of the well-studied toxins HgTx1, MgTx, and noxiustoxin (NTx, Table 3). […] Thus, Ce1 surpasses the closest homolog NTx in affinity for Kv1.1, but inferiors MgTx and especially HgTx in this characteristic (Table 2).

T1 sequence (Q09470 whole entry S369T, the tested form may be a part): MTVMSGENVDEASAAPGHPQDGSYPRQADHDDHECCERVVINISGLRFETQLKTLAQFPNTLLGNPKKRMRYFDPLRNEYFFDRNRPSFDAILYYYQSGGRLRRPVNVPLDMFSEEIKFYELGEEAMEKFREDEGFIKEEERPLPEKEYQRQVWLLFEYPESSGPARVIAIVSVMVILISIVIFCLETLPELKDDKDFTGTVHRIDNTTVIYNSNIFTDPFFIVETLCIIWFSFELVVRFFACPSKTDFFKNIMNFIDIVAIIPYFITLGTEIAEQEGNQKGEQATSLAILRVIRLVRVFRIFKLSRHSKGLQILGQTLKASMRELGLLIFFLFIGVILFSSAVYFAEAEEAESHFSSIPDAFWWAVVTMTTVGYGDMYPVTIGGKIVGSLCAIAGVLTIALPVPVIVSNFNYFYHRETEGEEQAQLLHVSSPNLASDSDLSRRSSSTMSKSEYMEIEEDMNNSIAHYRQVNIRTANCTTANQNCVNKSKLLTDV
T2 sequence (Q09470 whole entry S369T, the tested form may be a part): as above

CC[C@H](C)[C@@H]1NC(=O)CNC(=O)[C@H](Cc2ccccc2)NC(=O)[C@H](CCC(N)=O)NC(=O)[C@H](C)NC(=O)[C@H](CCCCN)NC(=O)[C@@H]2CSSC[C@@H](C(=O)N[C@@H](Cc3ccc(O)cc3)C(=O)N3CCC[C@H]3C(=O)N[C@@H](Cc3c[nH]cn3)C(=O)O)NC(=O)[C@H](CCCCN)NC(=O)[C@@H]3CSSC[C@H](NC(=O)[C@H](CCC(N)=O)NC(=O)[C@H](CCCCN)NC(=O)[C@@H]4CCCN4C(=O)[C@H](CO)NC(=O)[C@H]([C@@H](C)O)NC(=O)[C@@H](NC(=O)[C@H](CCCCN)NC(=O)[C@@H](NC(=O)[C@H](CC(=O)O)NC(=O)[C@@H](NC(=O)[C@@H](NC(=O)[C@@H](NC(=O)CCCN(C)C(=O)c4ccccc4-c4c5ccc(=N)c(S(=O)(=O)O)c-5oc5c(S(=O)(=O)O)c(N)ccc45)[C@@H](C)O)C(C)C)[C@@H](C)CC)C(C)C)CSSC[C@H](NC(=O)[C@H](CCCCN)NC(=O)[C@H](C)NC(=O)CNC(=O)[C@H](C)NC(=O)[C@H](CCCNC(=N)N)NC1=O)C(=O)N[C@@H](CCSC)C(=O)N[C@@H](CC(N)=O)C(=O)NCC(=O)N[C@@H](CCCCN)C(=O)N3)C(=O)N[C@@H](CC(C)C)C(=O)N1CCC[C@H]1C(=O)N1CCC[C@H]1C(=O)N2 [A-HgTx] (X1-[NMeGABA]TVIDVKCTSPKQCLPPCKAQFGIRAGAKCMNGKCKCYPH-OH; disulfide 8-30, 14-35, 18-37; C-terminus assumed)
Kd (Kv1.3 channel [1]): 0.3 ± 0.13 nM | decrease in the amplitude of the current through K-Kv1.1 ([2]; 5 nM A-HgTx, applied voltage from −30 to 70 mV): ~50% | IC50 ([2]; +50 mV voltage, mean ± SEM (n = 6), SEM, read-out: IC50 (concentration of A-HgTx inhibiting current by 50%)): 4.8 ± 0.2 nM | maximum current inhibition ([2]; +50 mV, A-HgTx above 15 nM): ca. 75%

CC[C@H](C)[C@H](NC(=O)[C@@H](NC(=O)[C@@H](N)[C@@H](C)O)C(C)C)C(=O)N[C@@H](CC(N)=O)C(=O)N[C@H](C(=O)N[C@@H](CCCCN)C(=O)N[C@H]1CSSC[C@@H]2NC(=O)[C@H](CCCCN)NC(=O)[C@H](C)NC(=O)CNC(=O)[C@H](C)NC(=O)[C@H](Cc3c[nH]cn3)NC(=O)[C@@H]3CCCN3C(=O)CNC(=O)[C@H](Cc3ccc(O)cc3)NC(=O)[C@H](CC(C)C)NC(=O)[C@H](CC(=O)O)NC(=O)[C@H](CCCCN)NC(=O)[C@@H]3CSSC[C@@H](C(=O)N[C@@H](Cc4ccc(O)cc4)C(=O)N[C@@H](CC(N)=O)C(=O)N[C@@H](CC(N)=O)C(=O)O)NC(=O)[C@H](CCCCN)NC(=O)[C@H](CSSC[C@H](NC(=O)[C@H](CCC(N)=O)NC(=O)[C@H](CCCCN)NC(=O)[C@@H]4CCCN4C(=O)[C@H](CO)NC(=O)[C@H]([C@@H](C)O)NC1=O)C(=O)N[C@@H](CC(C)C)C(=O)N[C@@H](CCCCN)C(=O)N1CCC[C@H]1C(=O)N3)NC(=O)[C@H](CCCCN)NC(=O)CNC(=O)[C@H](CC(N)=O)NC(=O)[C@H](CCSC)NC2=O)C(C)C [Ce1] (H-TVINVKCTSPKQCLKPCKDLYGPHAGAKCMNGKCKCYNN-OH; disulfide 7-29, 13-34, 17-36 (inferred); N-terminus and C-terminus assumed)
IC50 (Kv1.3 channel [3]): 0.7 nM | effect of channel state (closed or open) on affinity of K-Kv1.1 for the peptide [4]: does not affect the affinity

noxiustoxin [NTx]
block of the Kv1.1 channel (Kv1.1 channel): does not block
